These are literature values, as cited in patent US11135214B2, “Methods for enhancing the bio availability and exposure of a voltage-gated potassium channel opener” (priority 2018, dated 2021).

Series [1] deals with neural membrane excitability. As to conditions: Ziemann et al. 2015; Ossemann et al. 2016; cited from earlier work.
Another series has as its system TEP components. The following applies: TMS-EEG, Premoli et al. 2016; cited from earlier work.
For series [2] the following is noted: FDA Approved Labeling Text for Potiga; Harris and Murphy 2011; cited from earlier work.
For series [3] the following is noted: Prescott and Evans 2014; cited from earlier work.

For `NC(=O)N1c2ccccc2C=Cc2ccccc21` [carbamazepine], the “motor threshold (at rest and under active muscular contraction)” value (“motor threshold” below) in series [1] was “increased”.

As to `Nc1nnc(-c2cccc(Cl)c2Cl)c(N)n1` [lamotrigine], the “motor threshold” value in series [1] is “increased”. Moreover, in the series with TEP components, the P180 component entry was “suppressed” and the “amplitude of the N45” value is “increased”.

As to `CC[C@@H](C(N)=O)N1CCCC1=O` [levetiracetam], in the series with TEP components, the P180 component result was “suppressed” and the “amplitude of the N45” value is given as “increased”.

For the compound `CCOC(=O)Nc1ccc(NCc2ccc(F)cc2)cc1N` [retigabine], the “motor threshold” value in series [1] is “increased”. For the same compound, the “food effect on bioavailability and exposure after oral administration” value in series [2] was “lack of food effect”. In series [3], the “black-box warnings after long term use” value was “discoloration of skin, lips, nails and retinal pigmentary changes”.
